Data taken from ChEMBL document CHEMBL4130561, “Design and Synthesis of N1-Modified Imidazoquinoline Agonists for Selective Activation of Toll-like Receptors 7 and 8” (ACS Med Chem Lett, 2017).
Values belong to the compound of their own block, whether it stands above or below them. Activity calls are given as the source filed them. No cut-off for these calls is given here.

How the values were obtained:
[1] = molecular target: T1, Toll-like receptor 8 (Homo sapiens, UniProt Q9NR97); assay: Agonist activity at human TLR8 expressed in HEK cells after 8 to 12 hrs by NFkappaB/SEAP reporter gene assay; assay type: cell-based
T1 sequence (Q9NR97 whole entry): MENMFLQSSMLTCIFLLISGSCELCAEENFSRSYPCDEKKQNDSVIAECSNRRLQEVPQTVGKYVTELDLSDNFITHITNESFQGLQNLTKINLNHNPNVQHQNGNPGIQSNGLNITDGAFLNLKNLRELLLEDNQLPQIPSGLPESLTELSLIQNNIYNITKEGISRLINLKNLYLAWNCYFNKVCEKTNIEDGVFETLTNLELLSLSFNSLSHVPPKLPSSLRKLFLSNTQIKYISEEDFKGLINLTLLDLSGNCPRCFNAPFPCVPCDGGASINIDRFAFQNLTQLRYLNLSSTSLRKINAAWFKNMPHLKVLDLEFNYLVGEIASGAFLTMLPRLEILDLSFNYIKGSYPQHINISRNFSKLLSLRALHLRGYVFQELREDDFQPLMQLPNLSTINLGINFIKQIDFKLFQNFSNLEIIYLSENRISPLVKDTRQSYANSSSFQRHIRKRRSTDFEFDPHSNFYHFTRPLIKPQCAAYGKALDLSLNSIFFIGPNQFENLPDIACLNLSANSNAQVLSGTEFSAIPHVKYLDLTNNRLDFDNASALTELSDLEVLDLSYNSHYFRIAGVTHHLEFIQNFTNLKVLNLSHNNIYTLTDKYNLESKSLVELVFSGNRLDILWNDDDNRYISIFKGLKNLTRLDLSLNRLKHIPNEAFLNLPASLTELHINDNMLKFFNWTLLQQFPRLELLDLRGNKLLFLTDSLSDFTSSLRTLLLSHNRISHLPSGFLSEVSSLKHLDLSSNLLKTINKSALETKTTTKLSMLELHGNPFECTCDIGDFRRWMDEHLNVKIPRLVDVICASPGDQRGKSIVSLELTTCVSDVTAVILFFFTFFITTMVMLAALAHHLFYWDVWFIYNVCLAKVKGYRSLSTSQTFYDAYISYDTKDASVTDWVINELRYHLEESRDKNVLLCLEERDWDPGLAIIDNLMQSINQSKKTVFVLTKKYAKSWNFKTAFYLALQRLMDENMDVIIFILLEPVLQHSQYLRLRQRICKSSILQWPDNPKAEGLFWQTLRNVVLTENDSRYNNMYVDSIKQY

[2] = molecular target: T2, Toll-like receptor 7 (Homo sapiens, UniProt Q9NYK1); assay: Agonist activity at human TLR7 expressed in HEK cells after 8 to 12 hrs by NFkappaB/SEAP reporter gene assay; assay type: cell-based
T2 sequence (Q9NYK1 whole entry): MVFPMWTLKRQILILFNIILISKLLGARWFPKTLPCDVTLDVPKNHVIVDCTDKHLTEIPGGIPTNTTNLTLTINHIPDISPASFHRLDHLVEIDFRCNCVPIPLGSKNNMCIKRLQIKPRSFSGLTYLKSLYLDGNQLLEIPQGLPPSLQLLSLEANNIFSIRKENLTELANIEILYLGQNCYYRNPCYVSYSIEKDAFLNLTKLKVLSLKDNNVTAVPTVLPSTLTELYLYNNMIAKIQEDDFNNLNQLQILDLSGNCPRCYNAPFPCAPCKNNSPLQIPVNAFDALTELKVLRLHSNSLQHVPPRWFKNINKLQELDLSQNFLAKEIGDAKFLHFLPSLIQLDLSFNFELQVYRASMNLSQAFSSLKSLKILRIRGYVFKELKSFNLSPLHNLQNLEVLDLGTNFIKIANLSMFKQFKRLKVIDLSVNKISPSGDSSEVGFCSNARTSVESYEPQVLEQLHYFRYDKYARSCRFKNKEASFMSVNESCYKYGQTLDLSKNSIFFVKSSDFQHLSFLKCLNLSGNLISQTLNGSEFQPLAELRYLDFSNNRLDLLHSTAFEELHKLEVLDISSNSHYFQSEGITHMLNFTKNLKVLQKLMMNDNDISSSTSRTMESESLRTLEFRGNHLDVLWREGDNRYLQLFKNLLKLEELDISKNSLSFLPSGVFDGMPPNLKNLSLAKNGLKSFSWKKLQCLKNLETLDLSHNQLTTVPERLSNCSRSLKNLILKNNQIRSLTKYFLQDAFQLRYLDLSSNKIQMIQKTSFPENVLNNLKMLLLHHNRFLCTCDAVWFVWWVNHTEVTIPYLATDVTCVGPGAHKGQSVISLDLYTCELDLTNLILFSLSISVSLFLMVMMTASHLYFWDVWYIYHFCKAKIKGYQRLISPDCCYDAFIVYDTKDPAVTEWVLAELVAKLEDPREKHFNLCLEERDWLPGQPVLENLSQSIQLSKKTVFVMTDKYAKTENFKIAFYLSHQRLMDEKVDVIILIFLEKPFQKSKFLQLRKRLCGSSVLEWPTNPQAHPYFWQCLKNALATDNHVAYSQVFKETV

[3] = tested on: PBMC; assay: Immunostimulatory activity in human PBMC assessed as increase in TNFalpha levels at 1 uM after 24 hrs by ELISA; assay type: functional, cell-based
[4] = tested on: PBMC; assay: Immunostimulatory activity in human PBMC assessed as increase in IL-1beta levels at 1 uM after 24 hrs by ELISA; assay type: functional, cell-based
[5] = tested on: PBMC; assay: Immunostimulatory activity in human PBMC assessed as increase in IFNgamma levels at 1 uM after 24 hrs by ELISA; assay type: functional, cell-based
[6] = molecular target: T3, Toll-like receptor 8 (Homo sapiens) (UniProt Q9NR97); assay: Agonist activity at human TLR8 expressed in HEK cells at 180 uM after 8 to 12 hrs by NFkappaB/SEAP reporter gene assay; assay type: cell-based
T3 sequence (whole entry): T1 sequence (Q9NR97 whole entry)

[7] = molecular target: T4, Toll-like receptor 7 (Homo sapiens) (UniProt Q9NYK1); assay: Agonist activity at human TLR7 expressed in HEK cells at 180 uM after 8 to 12 hrs by NFkappaB/SEAP reporter gene assay; assay type: cell-based
T4 sequence (whole entry): T2 sequence (Q9NYK1 whole entry)

[8] = tested on: PBMC; assay: Immunostimulatory activity in human PBMC assessed as increase in IL-1beta levels at 0.39 to 50 uM after 24 hrs by ELISA; assay type: functional, cell-based
[9] = tested on: PBMC; assay: Immunostimulatory activity in human PBMC assessed as increase in IL-12p70 levels at 0.39 to 50 uM after 24 hrs by ELISA; assay type: functional, cell-based
[10] = tested on: PBMC; assay: Immunostimulatory activity in human PBMC assessed as increase in TNFalpha levels at 0.39 to 50 uM after 24 hrs by ELISA; assay type: functional, cell-based
[11] = tested on: PBMC; assay: Immunostimulatory activity in human PBMC assessed as increase in IFNgamma levels at 0.39 to 50 uM after 24 hrs by ELISA; assay type: functional, cell-based
[12] = tested on: PBMC; assay: Immunostimulatory activity in human PBMC assessed as increase in IFNgamma levels at 12.5 uM after 24 hrs by ELISA; assay type: functional, cell-based
[13] = tested on: PBMC; assay: Immunostimulatory activity in human PBMC assessed as increase in IL-1beta levels at 12.5 uM after 24 hrs by ELISA; assay type: functional, cell-based
[14] = tested on: PBMC; assay: Immunostimulatory activity in human PBMC assessed as increase in IL-12p70 levels at 12.5 uM after 24 hrs by ELISA; assay type: functional, cell-based
[15] = tested on: PBMC; assay: Immunostimulatory activity in human PBMC assessed as increase in TNFalpha levels at 12.5 uM after 24 hrs by ELISA; assay type: functional, cell-based

Compound: CC(C)Cn1cnc2c(N)nc3ccccc3c21 [IMIQUIMOD]
Activity [8]: inactive | Activity [9]: inactive | Activity [6]: inactive | Activity [10]: inactive | EC50 [2]: 11.4 µM | Activity [11]: inactive

Compound: CCCCc1nc2c(N)nc3cc(C(=O)OC)ccc3c2n1CCCCN
Activity [7]: inactive

Compound: CCCCc1nc2c(N)nc3cc(C(=O)OC)ccc3c2n1CCCCC(=O)OC
Activity [6]: inactive

Compound: CCCCc1nc2c(N)nc3cc(C(=O)OC)ccc3c2n1CCN
Activity [12]: Active | Activity [13]: Active | Activity [7]: inactive | Activity [14]: Active

Compound: CCCCc1nc2c(N)nc3cc(C(=O)OC)ccc3c2n1Cc1ccc(CN)cc1
Activity [15]: Active

Compound: CCCCc1nc2c(N)nc3cc(C(=O)OC)ccc3c2n1CCCN
Activity [7]: inactive | EC50 [1]: 26.7 µM

Compound: CCCCc1nc2c(N)nc3cc(C(=O)OC)ccc3c2n1CCCCO
Activity [6]: inactive | EC50 [2]: 3.21 µM

Compound: CCCCc1nc2c(N)nc3cc(C(=O)OC)ccc3c2n1CCC(=O)OC
Activity [6]: inactive

Compound: CCCCc1nc2c(N)nc3cc(C(=O)OC)ccc3c2n1CCCCC(=O)O
Activity [7]: inactive | Activity [6]: inactive

Compound: CCCCc1nc2c(N)nc3cc(C(=O)OC)ccc3c2n1CCSCC
Activity [6]: inactive

Compound: CCCCc1nc2c(N)nc3cc(C(=O)OC)ccc3c2n1CCCCCC(=O)OC
Activity [6]: inactive

Compound: CCCCc1nc2c(N)nc3cc(C(=O)OC)ccc3c2n1CC(=O)OC
Activity [6]: inactive

Second part, led by results:

EC50 [1]: 37 µM | EC50 [2]: 14.4 µM
Compound: CCCCc1nc2c(N)nc3cc(C(=O)OC)ccc3c2n1CCO

Activity [6]: inactive
Compound: CCCCc1nc2c(N)nc3cc(C(=O)OC)ccc3c2n1CCSC
Activity [3]: Active | Activity [4]: Active | Activity [5]: Active

Activity [7]: inactive | Activity [6]: inactive
Compound: CCCCCCCC(=O)OC(C)Cn1c(CCCC)nc2c(N)nc3cc(C(=O)OC)ccc3c21 (configuration not stated)

Activity [6]: inactive | EC50 [2]: 1.72 µM
Compound: CCCCc1nc2c(N)nc3cc(C(=O)OC)ccc3c2n1CCCO

Activity [7]: inactive | Activity [6]: inactive
Compound: CCCCc1nc2c(N)nc3cc(C(=O)OC)ccc3c2n1CCc1ccc(C(=O)O)cc1

Activity [6]: inactive | EC50 [2]: 3.06 µM
Compound: CCCCc1nc2c(N)nc3cc(C(=O)OC)ccc3c2n1CC(C)OC(C)=O (configuration not stated)

Activity [6]: inactive
Compound: CCCCc1nc2c(N)nc3cc(C(=O)OC)ccc3c2n1Cc1ccc(C(=O)O)cc1

Activity [6]: inactive
Compound: CCCCc1nc2c(N)nc3cc(C(=O)OC)ccc3c2n1CCCC(=O)OC

EC50 [1]: 20.9 µM | EC50 [2]: 1.69 µM
Compound: CCCCc1nc2c(N)nc3cc(C(=O)OC)ccc3c2n1CC(C)(C)O

Activity [6]: inactive
Compound: CCCCc1nc2c(N)nc3cc(C(=O)OC)ccc3c2n1CCCSC
